The numbers were not newly measured in patent US20100136089A1, “LOCATION OF FATTY ACID ESTERS ON TAMPONS AND TOXIN […]” (priority 2008, published 2010), which cites them from elsewhere.

The structures appear in SMILES notation.

This data set relates to humans. The following applies: stated as known.

Consider `CCCCCCCCCCCC(=O)OCC(O)CO` (stereo not shown) [GML, glycerol monolaurate], for which the toxicity to humans entry was “non toxic to humans”.
